From ChEMBL document CHEMBL1268828, “Synthesis of novel pyrrole and pyrrolo[2,3-d]pyrimidine derivatives bearing sulfonamide moiety for evaluation as anticancer and radiosensitizing agents” (Bioorg Med Chem Lett, 2010)

Assays:
HepG2 [1] = assay: Cytotoxicity against human HepG2 cells assessed as inhibition of cell proliferation after 24 hrs by SRB assay; type: functional, cell-based; details: HepG2, 24 h
MCF7 [2] = assay: Cytotoxicity against human MCF7 cells assessed as inhibition of cell proliferation after 24 hrs by SRB assay; type: functional, cell-based; details: MCF7, 24 h
HepG2 [3] = assay: Anticancer activity against human HepG2 cells assessed as viable cells after 48 hrs at 40 uM by SRB assay relative to control; type: functional; details: HepG2, 48 h, read-out: Activity
HepG2 [4] = assay: Anticancer activity against human HepG2 cells assessed as viable cells after 48 hrs at 25 uM by SRB assay relative to control; type: functional; details: HepG2, 48 h, read-out: Activity
HepG2 [5] = assay: Anticancer activity against human HepG2 cells assessed as viable cells after 48 hrs at 5 uM by SRB assay relative to control; type: functional; details: HepG2, 48 h, read-out: Activity
HepG2 [6] = assay: Anticancer activity against 4 Gy gamma-irradiated human HepG2 cells assessed as viable cells after 48 hrs at 25 uM by SRB assay (reference value: 21.2%); type: functional; details: HepG2, light or radiation study, read-out: Activity
HepG2 [7] = assay: Anticancer activity against human HepG2 cells assessed as viable cells after 48 hrs at 12.5 uM by SRB assay relative to control; type: functional; details: HepG2, 48 h, read-out: Activity
HepG2 [8] = assay: Anticancer activity against 4 Gy gamma-irradiated human HepG2 cells assessed as viable cells after 48 hrs at 40 uM by SRB assay (reference value: 21.2%); type: functional; details: HepG2, light or radiation study, read-out: Activity
HepG2 [9] = assay: Anticancer activity against 4 Gy gamma-irradiated human HepG2 cells assessed as viable cells after 48 hrs at 12.5 uM by SRB assay (reference value: 21.2%); type: functional; details: HepG2, light or radiation study, read-out: Activity
HepG2 [10] = assay: Anticancer activity against 4 Gy gamma-irradiated human HepG2 cells assessed as viable cells after 48 hrs at 5 uM by SRB assay (reference value: 21.2%); type: functional; details: HepG2, light or radiation study, read-out: Activity
MCF7 [11] = assay: Anticancer activity against human MCF7 cells assessed as viable cells after 48 hrs at 12.5 uM by SRB assay relative to control; type: functional; details: MCF7, 48 h, read-out: Activity
MCF7 [12] = assay: Anticancer activity against 4 Gy gamma-irradiated human MCF7 cells assessed as viable cells after 48 hrs at 25 uM by SRB assay (reference value: 7.3%); type: functional; details: MCF7, light or radiation study, read-out: Activity
MCF7 [13] = assay: Anticancer activity against human MCF7 cells assessed as viable cells after 48 hrs at 25 uM by SRB assay relative to control; type: functional; details: MCF7, 48 h, read-out: Activity
MCF7 [14] = assay: Anticancer activity against 4 Gy gamma-irradiated human MCF7 cells assessed as viable cells after 48 hrs at 5 uM by SRB assay (reference value: 7.3%); type: functional; details: MCF7, light or radiation study, read-out: Activity
MCF7 [15] = assay: Anticancer activity against 4 Gy gamma-irradiated human MCF7 cells assessed as viable cells after 48 hrs at 40 uM by SRB assay (reference value: 7.3%); type: functional; details: MCF7, light or radiation study, read-out: Activity
MCF7 [16] = assay: Anticancer activity against human MCF7 cells assessed as viable cells after 48 hrs at 40 uM by SRB assay relative to control; type: functional; details: MCF7, 48 h, read-out: Activity
MCF7 [17] = assay: Anticancer activity against 4 Gy gamma-irradiated human MCF7 cells assessed as viable cells after 48 hrs at 12.5 uM by SRB assay (reference value: 7.3%); type: functional; details: MCF7, light or radiation study, read-out: Activity
MCF7 [18] = assay: Anticancer activity against human MCF7 cells assessed as viable cells after 48 hrs at 5 uM by SRB assay relative to control; type: functional; details: MCF7, 48 h, read-out: Activity
HepG2 [19] = assay: Anticancer activity against 4 Gy gamma-irradiated human HepG2 cells assessed as viable cells after 48 hrs at 40 uM by SRB assay (reference value: 18.73%); type: functional; details: HepG2, light or radiation study, read-out: Activity
HepG2 [20] = assay: Anticancer activity against 4 Gy gamma-irradiated human HepG2 cells assessed as viable cells after 48 hrs at 12.5 uM by SRB assay (reference value: 18.73%); type: functional; details: HepG2, light or radiation study, read-out: Activity
HepG2 [21] = assay: Anticancer activity against 4 Gy gamma-irradiated human HepG2 cells assessed as viable cells after 48 hrs at 25 uM by SRB assay (reference value: 18.73%); type: functional; details: HepG2, light or radiation study, read-out: Activity
HepG2 [22] = assay: Anticancer activity against 4 Gy gamma-irradiated human HepG2 cells assessed as viable cells after 48 hrs at 5 uM by SRB assay (reference value: 18.73%); type: functional; details: HepG2, light or radiation study, read-out: Activity

Structure (SMILES): COc1cccc2c1C(=O)c1c(O)c3c(c(O)c1C2=O)C[C@@](O)(C(=O)CO)C[C@@H]3O[C@H]1C[C@H](N)[C@H](O)[C@H](C)O1 [DOXORUBICIN]
- IC50 (HepG2 [1]): 5.23 µM

Structure (SMILES): Nc1ncnc2c1c(-c1ccccc1)cn2-c1ccc(S(=O)(=O)Nc2ccccn2)cc1
- IC50 (MCF7 [2]): 6.34 µM
- IC50 (HepG2 [1]): 4.09 µM

Structure (SMILES): Nc1nc(=S)[nH]c2c1c(-c1ccccc1)cn2-c1ccc(S(=O)(=O)Nc2nccs2)cc1
- IC50 (MCF7 [2]): 3.12 µM
- IC50 (HepG2 [1]): 4.12 µM

Structure (SMILES): CC(=O)Nc1c(C#N)c(-c2ccccc2)cn1-c1ccc(S(=O)(=O)Nc2nccs2)cc1
- IC50 (MCF7 [2]): 7.24 µM
- IC50 (HepG2 [1]): 4.02 µM

Structure (SMILES): Nc1nc(=O)[nH]c2c1c(-c1ccccc1)cn2-c1ccc(S(=O)(=O)Nc2nccs2)cc1
- viability at 40 µM (HepG2 [3]): 63.6%
- viability at 25 µM (HepG2 [4]): 63.9%
- viability at 5 µM (HepG2 [5]): 22.3%
- viability at 25 µM (HepG2 [6]): 78.3%
- IC50 (MCF7 [2]): 8.32 µM
- viability at 12.5 µM (HepG2 [7]): 47.7%
- IC50 (HepG2 [1]): 3.49 µM
- viability at 40 µM (HepG2 [8]): 81.7%
- viability at 12.5 µM (HepG2 [9]): 69.2%
- viability at 5 µM (HepG2 [10]): 61.7%

Structure (SMILES): N#Cc1c(-c2ccccc2)cn(-c2ccc(S(=O)(=O)Nc3nccs3)cc2)c1NC(N)=O
- IC50 (MCF7 [2]): 8.05 µM
- IC50 (HepG2 [1]): 4.02 µM

Structure (SMILES): N#Cc1c(-c2ccccc2)cn(-c2ccc(S(=O)(=O)Nc3ccccn3)cc2)c1N
- IC50 (MCF7 [2]): 4.6 µM
- IC50 (HepG2 [1]): 5.3 µM

Structure (SMILES): N#Cc1c(-c2ccccc2)cn(-c2ccc(S(=O)(=O)Nc3nccs3)cc2)c1N
- viability at 12.5 µM (MCF7 [11]): 42.5%
- viability at 25 µM (MCF7 [12]): 82.3%
- IC50 (MCF7 [2]): 3.49 µM
- viability at 25 µM (MCF7 [13]): 71.3%
- IC50 (HepG2 [1]): 5.36 µM
- viability at 5 µM (MCF7 [14]): 41.5%
- viability at 40 µM (MCF7 [15]): 85.8%
- viability at 40 µM (MCF7 [16]): 72%
- viability at 12.5 µM (MCF7 [17]): 65.3%
- viability at 5 µM (MCF7 [18]): 11.3%

Structure (SMILES): O=C(CNc1ccc(S(=O)(=O)Nc2ccccn2)cc1)c1ccccc1
- IC50 (MCF7 [2]): 7.56 µM
- IC50 (HepG2 [1]): 6.75 µM

Structure (SMILES): O=C(CNc1ccc(S(=O)(=O)Nc2nccs2)cc1)c1ccccc1
- IC50 (MCF7 [2]): 8.89 µM
- IC50 (HepG2 [1]): 6.78 µM

Structure (SMILES): O=c1[nH]cnc2c1c(-c1ccccc1)cn2-c1ccc(S(=O)(=O)Nc2nccs2)cc1
- IC50 (MCF7 [2]): 6.21 µM
- IC50 (HepG2 [1]): 5.3 µM

Structure (SMILES): CC(=O)Nc1c(C#N)c(-c2ccccc2)cn1-c1ccc(S(=O)(=O)Nc2ccccn2)cc1
- viability at 40 µM (HepG2 [3]): 69.9%
- viability at 25 µM (HepG2 [4]): 62.7%
- viability at 5 µM (HepG2 [5]): 30.3%
- viability at 25 µM (HepG2 [6]): 82.5%
- IC50 (MCF7 [2]): 11.8 µM
- viability at 12.5 µM (HepG2 [7]): 53.5%
- IC50 (HepG2 [1]): 3.49 µM
- viability at 40 µM (HepG2 [8]): 82.5%
- viability at 12.5 µM (HepG2 [9]): 69.5%
- viability at 5 µM (HepG2 [10]): 57.4%

Structure (SMILES): N#Cc1c(-c2ccccc2)cn(-c2ccc(S(=O)(=O)Nc3ccccn3)cc2)c1N1C(=O)CCC1=O
- IC50 (MCF7 [2]): 9.93 µM
- IC50 (HepG2 [1]): 5.36 µM

Structure (SMILES): Nc1ncnc2c1c(-c1ccccc1)cn2-c1ccc(S(=O)(=O)Nc2nccs2)cc1
- IC50 (MCF7 [2]): 6.45 µM
- IC50 (HepG2 [1]): 4.24 µM

Structure (SMILES): N#Cc1c(-c2ccccc2)cn(-c2ccc(S(=O)(=O)Nc3nccs3)cc2)c1NC(=O)CCC(=O)O
- viability at 40 µM (HepG2 [3]): 49.6%
- viability at 25 µM (HepG2 [4]): 36%
- viability at 5 µM (HepG2 [5]): 25%
- viability at 25 µM (HepG2 [6]): 71.8%
- IC50 (MCF7 [2]): 9.12 µM
- viability at 12.5 µM (HepG2 [7]): 39.6%
- IC50 (HepG2 [1]): 3.75 µM
- viability at 40 µM (HepG2 [8]): 79.4%
- viability at 12.5 µM (HepG2 [9]): 72.6%
- viability at 5 µM (HepG2 [10]): 60.6%

Structure (SMILES): Nc1nc(=S)[nH]c2c1c(-c1ccccc1)cn2-c1ccc(S(=O)(=O)Nc2ccccn2)cc1
- IC50 (MCF7 [2]): 3.8 µM
- IC50 (HepG2 [1]): 4.1 µM

Structure (SMILES): N#Cc1c(-c2ccccc2)cn(-c2ccc(S(=O)(=O)Nc3ccccn3)cc2)c1NC(N)=O
- IC50 (MCF7 [2]): 7.34 µM
- IC50 (HepG2 [1]): 4.12 µM

Structure (SMILES): N#Cc1c(-c2ccccc2)cn(-c2ccc(S(=O)(=O)Nc3nccs3)cc2)c1N1C(=O)CCC1=O
- IC50 (MCF7 [2]): 6.71 µM
- IC50 (HepG2 [1]): 4.56 µM

Structure (SMILES): O=c1[nH]cnc2c1c(-c1ccccc1)cn2-c1ccc(S(=O)(=O)Nc2ccccn2)cc1
- IC50 (MCF7 [2]): 5.32 µM
- IC50 (HepG2 [1]): 4.67 µM

Structure (SMILES): Cc1nc2c(c(-c3ccccc3)cn2-c2ccc(S(=O)(=O)Nc3ccccn3)cc2)c(=O)[nH]1
- IC50 (MCF7 [2]): 5.1 µM
- IC50 (HepG2 [1]): 3.15 µM

Structure (SMILES): Cc1nc2c(c(-c3ccccc3)cn2-c2ccc(S(=O)(=O)Nc3nccs3)cc2)c(=O)[nH]1
- IC50 (MCF7 [2]): 5.8 µM
- IC50 (HepG2 [1]): 3.39 µM

Structure (SMILES): N#Cc1c(-c2ccccc2)cn(-c2ccc(S(=O)(=O)Nc3ccccn3)cc2)c1NC(=O)CCC(=O)O
- viability at 40 µM (HepG2 [3]): 78%
- viability at 25 µM (HepG2 [4]): 72%
- viability at 40 µM (HepG2 [19]): 87.7%
- viability at 5 µM (HepG2 [5]): 15.1%
- viability at 12.5 µM (HepG2 [20]): 84.4%
- IC50 (MCF7 [2]): 8.32 µM
- viability at 25 µM (HepG2 [21]): 89.2%
- viability at 12.5 µM (HepG2 [7]): 60.3%
- IC50 (HepG2 [1]): 3.75 µM
- viability at 5 µM (HepG2 [22]): 81.4%

Structure (SMILES): Nc1nc(=O)[nH]c2c1c(-c1ccccc1)cn2-c1ccc(S(=O)(=O)Nc2ccccn2)cc1
- IC50 (MCF7 [2]): 3.9 µM
- IC50 (HepG2 [1]): 4.3 µM
